Data taken from the CheMixHub viscosity set.
Values joined by “and” are separate entries in the source; they are usually repeats but may differ in a detail not shown here. Equal values may be shown once.

Experiment: xn = mol fraction of the nth substance listed

CC(C)=O + C1CCCCC1
viscosity [mPa·s], 101.33 kPa
Conditions	293.15 K	298.15 K	303.15 K	307.35 K
x1 = 0.091	–	–	–	0.662
x1 = 0.3116	–	–	–	0.512
x1 = 0.3949	–	–	–	0.461
x1 = 0.4589	–	–	–	0.431
x1 = 0.5299	–	–	–	0.402
x1 = 0.7897	–	–	–	0.323
x2 = 0.049	0.329	0.313	0.299	–
x2 = 0.0917	0.336	0.32	0.305	–
x2 = 0.1959	0.361	0.343	0.326	–
x2 = 0.2889	0.392	0.371	0.352	–
x2 = 0.4092	0.443	0.417	0.394	–
x2 = 0.5009	0.486	0.456	0.429	–
x2 = 0.5984	0.544	0.509	0.477	–
x2 = 0.7007	0.621	0.578	0.54	–
x2 = 0.8046	0.7	0.65	0.606	–
x2 = 0.9051	0.818	0.756	0.701	–
x2 = 0.958	0.895	0.829	0.762	–

CC(=O)Oc1ccccc1C(=O)O + CCCO
viscosity [mPa·s], 101 kPa
Conditions	x1 = 0.00057	x1 = 0.000763	x1 = 0.000955	x1 = 0.00115	x1 = 0.00134	x1 = 0.00153	x1 = 0.00191
293.15 K	2.257	2.26	2.261	2.262	2.265	2.266	2.27
298.15 K	2.207	2.209	2.21	2.211	2.213	2.215	2.217
303.15 K	1.718	1.719	1.719	1.721	1.722	1.723	1.726
308.15 K	1.622	1.623	1.624	1.625	1.626	1.627	1.628
310.15 K	1.458	1.459	1.459	1.46	1.46	1.461	1.461
313.15 K	1.397	1.398	1.399	1.399	1.399	1.4	1.401

CCCC(=O)[O-].OCC[NH2+]CCO + CC(=O)O.NCCO
viscosity [mPa·s], 101.3 kPa
Conditions	x2 = 0.1516	x2 = 0.2854	x2 = 0.4059	x2 = 0.5163	x2 = 0.6146	x2 = 0.7052	x2 = 0.7885	x2 = 0.8646	x2 = 0.9348
293.15 K	1991	2150	2309	2468	2628	2787	2946	3105	3264
298.15 K	1330	1434	1538	1642	1746	1850	1955	2059	2163
303.15 K	906.1	972.3	1039	1105	1171	1237	1303	1370	1436
308.15 K	631.9	675.2	718.4	761.7	804.9	848.2	891.4	934.7	978
313.15 K	450.1	479.1	508.1	537.1	566.1	595.1	624.1	653.1	682.1
318.15 K	327	347	366.9	386.9	406.8	426.8	446.7	466.7	486.6
323.15 K	242	256	270.1	284.1	298.1	312.2	326.2	340.2	354.3

CC[N+](CC)(CC)CC.Cc1ccc(S(=O)(=O)[O-])cc1 + OCCO
101 kPa, x1 = 0.2
Conditions	viscosity [mPa·s]
298.15 K	51.2
303.15 K	40.8
308.15 K	32.8
313.15 K	24.4
318.15 K	22.2
323.15 K	17.4

COc1ccccc1 + CCCCO
viscosity [mPa·s]
Conditions	303 K	303.15 K	313 K	313.15 K	323 K	323.15 K
100 kPa, x1 = 0.121	1.831	–	1.255	–	1.031	–
100 kPa, x1 = 0.236	1.534	–	1.069	–	0.8722	–
100 kPa, x1 = 0.346	1.297	–	0.9238	–	0.7426	–
100 kPa, x1 = 0.452	1.128	–	0.8353	–	0.6858	–
100 kPa, x1 = 0.553	1.049	–	0.7844	–	0.6551	–
100 kPa, x1 = 0.65	0.9984	–	0.7302	–	0.6131	–
100 kPa, x1 = 0.742	0.9819	–	0.7012	–	0.5948	–
100 kPa, x1 = 0.832	0.9796	–	0.6884	–	0.5673	–
100 kPa, x1 = 0.918	0.9769	–	0.6724	–	0.5517	–
101.33 kPa, x1 = 0.1002	–	1.874	–	1.48	–	1.165
101.33 kPa, x1 = 0.2	–	1.523	–	1.254	–	0.989
101.33 kPa, x1 = 0.3001	–	1.359	–	1.075	–	0.899
101.33 kPa, x1 = 0.3998	–	1.197	–	0.975	–	0.806
101.33 kPa, x1 = 0.5	–	1.079	–	0.889	–	0.75
101.33 kPa, x1 = 0.6002	–	1.001	–	0.851	–	0.734
101.33 kPa, x1 = 0.7	–	0.952	–	0.805	–	0.721
101.33 kPa, x1 = 0.8003	–	0.929	–	0.788	–	0.709
101.33 kPa, x1 = 0.9	–	0.914	–	0.772	–	0.698

CC[C@H](C)[C@H](N)C(=O)O + O
viscosity, 101 kPa
Conditions	293.15 K	298.15 K	303.15 K	308.15 K	313.15 K	318.15 K
x1 = 0.00045	1.008 mPa·s	0.896 mPa·s and 0.896 mPa·s	0.8028 mPa·s and 0.8027 mPa·s	0.7244 mPa·s and 0.7243 mPa·s	0.6578 mPa·s and 0.6577 mPa·s	0.6022 mPa·s and 0.602 mPa·s
x1 = 0.0009	1.019 mPa·s	0.9057 mPa·s and 0.9059 mPa·s	0.8118 mPa·s and 0.8118 mPa·s	0.733 mPa·s and 0.7328 mPa·s	0.6658 mPa·s and 0.6657 mPa·s	0.6098 mPa·s and 0.6096 mPa·s
x1 = 0.00135	1.03 mPa·s	0.9164 mPa·s and 0.9165 mPa·s	0.8217 mPa·s and 0.8217 mPa·s	0.7422 mPa·s and 0.742 mPa·s	0.6745 mPa·s and 0.6744 mPa·s	0.6181 mPa·s and 0.6178 mPa·s
x1 = 0.0018	1.042 mPa·s	0.9273 mPa·s and 0.9275 mPa·s	0.8319 mPa·s and 0.8318 mPa·s	0.7516 mPa·s and 0.7515 mPa·s	0.6834 mPa·s and 0.6832 mPa·s	0.6265 mPa·s and 0.6261 mPa·s
x1 = 0.002245	1.054 mPa·s	0.9386 mPa·s and 0.9387 mPa·s	0.8423 mPa·s and 0.8422 mPa·s	0.7613 mPa·s and 0.7612 mPa·s	0.6925 mPa·s and 0.6923 mPa·s	0.6351 mPa·s and 0.6347 mPa·s
x1 = 0.002695	1.067 mPa·s	0.9502 mPa·s and 0.9502 mPa·s	0.8531 mPa·s and 0.853 mPa·s	0.7714 mPa·s and 0.7713 mPa·s	0.702 mPa·s and 0.7018 mPa·s	0.6438 mPa·s and 0.6434 mPa·s

CC1COC(=O)O1 (centres undefined) + CN(C)C=O
101.33 kPa
Conditions	viscosity [mPa·s]
298.15 K, x1 = 0.1053	0.89
298.15 K, x1 = 0.1593	0.942
298.15 K, x1 = 0.2227	1.004
298.15 K, x1 = 0.2607	1.047
298.15 K, x1 = 0.3155	1.107
298.15 K, x1 = 0.3624	1.164
298.15 K, x1 = 0.4248	1.246
298.15 K, x1 = 0.4476	1.278
298.15 K, x1 = 0.5094	1.37
298.15 K, x1 = 0.5658	1.462
298.15 K, x1 = 0.6334	1.582
298.15 K, x1 = 0.659	1.63
298.15 K, x1 = 0.7108	1.742
298.15 K, x1 = 0.7559	1.835
298.15 K, x1 = 0.8147	1.983
298.15 K, x1 = 0.8705	2.117
298.15 K, x1 = 0.9299	2.284
298.15 K, x1 = 0.954	2.357
308.15 K, x1 = 0.0453	0.742
308.15 K, x1 = 0.1078	0.787
308.15 K, x1 = 0.1606	0.828
308.15 K, x1 = 0.2114	0.87
308.15 K, x1 = 0.2565	0.91
308.15 K, x1 = 0.2989	0.95
308.15 K, x1 = 0.3551	1.005
308.15 K, x1 = 0.4045	1.058
308.15 K, x1 = 0.4505	1.109
308.15 K, x1 = 0.4988	1.167
308.15 K, x1 = 0.5351	1.213
308.15 K, x1 = 0.6158	1.33
308.15 K, x1 = 0.6532	1.38
308.15 K, x1 = 0.7153	1.48
308.15 K, x1 = 0.7499	1.539
308.15 K, x1 = 0.802	1.638
308.15 K, x1 = 0.8517	1.731
308.15 K, x1 = 0.9033	1.841
318.15 K, x1 = 0.049	0.664
318.15 K, x1 = 0.0961	0.694
318.15 K, x1 = 0.1672	0.74
318.15 K, x1 = 0.2118	0.772
318.15 K, x1 = 0.2639	0.811
318.15 K, x1 = 0.3122	0.849
318.15 K, x1 = 0.3528	0.884
318.15 K, x1 = 0.4228	0.946
318.15 K, x1 = 0.4487	0.97
318.15 K, x1 = 0.4941	1.015
318.15 K, x1 = 0.5567	1.081
318.15 K, x1 = 0.6184	1.152
318.15 K, x1 = 0.6678	1.216
318.15 K, x1 = 0.7127	1.271
318.15 K, x1 = 0.7415	1.311
318.15 K, x1 = 0.8179	1.424
318.15 K, x1 = 0.8689	1.505
318.15 K, x1 = 0.9013	1.56
